Results on eleven molecules are retold here after US20060094698A1, “Self-administered contraceptive injection of oily solution” (priority 2002, published 2006).

A short description of series [1]: Pharmacokinetics of etonogestrel esters after one i.m. injection in the rabbit (plasma etonogestrel by LC-MSMS). The format is in vivo. To be noted: for peak levels of etonogestrel: one i.m. injection 20 mg/kg in arachis oil (40 mg/ml), rabbit plasma. As for the experimental part:
For the determination of the pharmacokinetic profile of the different etonogestrel-esters after parenteral application, i.m. application in the castrated rabbit model was chosen instead of s.c. Briefly, rabbits were injected once (day 1) with indicated etonogestrel-esters at 20 mg/kg in arachis oil (with a concentration of 40 mg/ml). At day 1, 2, 3, 4, 5, 6, 7, 8, 10, 12, 14, 21, 28, 35, 49, 63, 77, 92, 106, 120 and 133 blood was collected from the ear arteria, in EDTA-containing tubes. EDTA plasma was prepared (1500 g, 15 min) and stored at −20° C. With LC-MSMS, the amount of parent compound (etonogestrel) was determined in these samples. The lower limit of this new assay is 0.5 nmol/l, from 0-250 nmol/l a linear curve was obtained with a correlation coefficient of 0.9998.

Series [2] is described as follows: Pharmacokinetics of androgen esters after one s.c. injection in the castrated rabbit (plasma MENT or testosterone by LC-MSMS). To be noted: one s.c. injection 20 mg/kg in arachis oil (100 mg/ml). The format is in vivo. How it is done:
For the determination of the pharmacokinetic profile of the different androgen-esters after s.c. application, the castrated rabbit model was selected as the model which is most similar to humans. Briefly, rabbits were injected once (day 1) with indicated androgen-esters at 20 mg/kg in arachis oil (with a concentration of 100 mg/ml). At day 2, 3, 4, 5, 8, 15, 22, 36, 44 and 58 blood was collected from the ear arteria, in EDTA-containing tubes. EDTA plasma was prepared (1500 g, 15 min) and stored at −20° C. With LC-MSMS, the amount of parent compound (testosterone or MENT) was determined in these samples. The lower limit of this new assay is 2 nmol/l, from 0-500 nmol/I a linear curve was obtained with a correlation coefficient of 0.9998.

Series [3] can be described thus: Solubility / appearance of solutions determined visually. As to conditions: for solubility (visual) in all four tested solvents: desired concentration 50 mg/ml etonogestrel-undecanoate, 100 mg/ml MENT-undecanoate. How it is done:
(§1) Using these solvents, the following solutions were prepared: • 100 mg/ml etonogestrel undecanoate in the different solvents • 50 mg/ml etonogestrel undecanoate in the different solvents • 200 mg/ml MENT undecanoate in the different solvents • 100 mg/ml MENT undecanoate in the different solvents • 50 mg/ml etonogestrel undecanoate+100 mg/ml MENT undecanoate in the different solvents
(§2) The solubility of the compounds in the solvents was determined visually. The viscosity was determined using a Brookfield model DV-III. The density of the solutions was determined using a Mettler Toledo DA-100M density meter.

Series [4] can be described thus: Viscosity, Brookfield model DV-III. The format is physicochemical. As for the experimental part:
as §1, §2

A short description of series [5]: Density, Mettler Toledo DA-100M density meter. The format is physicochemical. As for the experimental part: as §1, §2
For series [6] the following is noted: one IM injection, hypogonadal men, FIG. 5 (Nieschlag and Behre 1997); cited from earlier work.
Where [7] appears, read: one i.m. injection 20 mg/kg in arachis oil, rabbit.
Setting [8] is: solvent arachis oil + 50% benzyl benzoate, etonogestrel undecanoate 50 mg/ml and/or MENT undecanoate 100 mg/ml.
[9] abbreviates: solvent arachis oil, etonogestrel undecanoate 50 mg/ml and/or MENT undecanoate 100 mg/ml.
The mark [10] stands for this setting: solvent ethyl undecanoate + 50% benzyl benzoate, etonogestrel undecanoate 50 mg/ml and/or MENT undecanoate 100 mg/ml.
The mark [11] stands for this setting: solvent ethyl undecanoate, etonogestrel undecanoate 50 mg/ml and/or MENT undecanoate 100 mg/ml.

Regarding `C#CC1(OC(=O)CCCCCCCCC)CCC2C3CCC4=CC(=O)CCC4C3C(=C)CC21CC` (centres unmarked) [etonogestrel decanoate], the “peak levels of etonogestrel” value in series [1] was determined as 24 nmol/L. In addition, in series [1] (setting [7]), the “time of initial peak level of etonogestrel” value is listed as 5 days.

Turning to `C#C[C@]1(OC(=O)CCCCCCCCCCCC)CC[C@H]2[C@@H]3CCC4=CC(=O)CC[C@@H]4[C@H]3C(=C)C[C@@]21CC` [etonogestrel tridecanoate], in series [1], the “peak levels of etonogestrel” value was “no initial levels of etonogestrel were observed”.

On to `C#C[C@]1(OC(=O)CCCCCC)CC[C@H]2[C@@H]3CCC4=CC(=O)CC[C@@H]4[C@H]3C(=C)C[C@@]21CC` [Etonogestrel-heptanoate], for which, in series [1], the “peak levels of etonogestrel” value turned out to be 120 nmol/L.

Regarding `CCCCCCC(=O)O[C@H]1CC[C@H]2[C@@H]3CCC4=CC(=O)CC[C@]4(C)[C@H]3CC[C@]12C` [Testosterone enanthate, testosterone enanthate], in series [2], the “pharmacokinetic profile of released MENT or testosterone” value is on record as “high peak of testosterone”.

With `CCCCCCCCCCC(=O)O[C@H]1CC[C@H]2[C@H]3[C@H](CC[C@]12C)[C@H]1CCC(=O)C=C1C[C@H]3C` [MENT-undecanoate], the “heating temperature necessary to dissolve” value in series [3] (200 mg/ml in arachis oil) was “approximately 50 °C”. Moreover, in series [3], the “solubility (visual) in all four tested solvents” value is given as “could be dissolved at two times the desired concentration”. The Appearance entry is “Clear yellowish solution” in series [3] (setting [8]), “Clear yellowish solution” in series [3] (setting [9]), “Clear colourless solution” in series [3] (setting [10]) and “Clear colourless solution” in series [3] (setting [11]). Moreover, the Viscosity in series [4] (setting [8]) is listed as 35.0 cps; in series [4] (setting [9]) it was 97.2 cps; in series [4] (setting [10]), 6.1 cps; in series [4] (setting [11]) it was 4.0 cps. The Density in series [5] (setting [8]) was found to be 1.009 g/mL; in series [5] (setting [9]), 0.924 g/mL; in series [5] (setting [10]), 0.979 g/mL; in series [5] (setting [11]) it was 0.879 g/mL.

With `C#C[C@]1(O)CC[C@H]2[C@@H]3CCC4=CC(=O)CC[C@@H]4[C@H]3C(=C)C[C@@]21CC` [etonogestrel, (17α)-13-ethyl-17-hydroxy-11-methylene-18,19-dinorpregn-4-en-20-yn-3-one, reference compound], the “peak levels of etonogestrel” value in series [1] amounted to 200 nmol/L. For the same molecule, the “time in which etonogestrel levels declined to below 1 nmol/l” value in series [1] (setting [7]) was determined as 28 days.

On to `C#C[C@]1(OC(=O)CCCCCCCCCC)CC[C@H]2[C@@H]3CCC4=CC(=O)CC[C@@H]4[C@H]3C(=C)C[C@@]21CC` [etonogestrel undecanoate], for which the “peak levels of etonogestrel” value in series [1] came out at 13 nmol/L. Also, in series [1] (setting [7]), the “duration of action (etonogestrel levels above 1 nmol/l)” value is “more than 92 days”. Moreover, the “solubility (visual) in all four tested solvents” value in series [3] was “could be dissolved at two times the desired concentration”. Further, the Appearance result in series [3] (setting [8]) is “Clear yellowish solution”; in series [3] (setting [9]) it was “Clear yellowish solution”; in series [3] (setting [10]), “Clear colourless solution”; in series [3] (setting [11]) it was “Clear colourless solution”. Further, the Viscosity was determined as 28.1 cps in series [4] (setting [8]), 76.6 cps in series [4] (setting [9]), 4.7 cps in series [4] (setting [10]) and 3.2 cps in series [4] (setting [11]). The Density in series [5] (setting [8]) worked out at 1.006 g/mL; in series [5] (setting [9]), 0.919 g/mL; in series [5] (setting [10]), 0.978 g/mL; in series [5] (setting [11]) it was 0.870 g/mL.

Turning to `C#C[C@]1(OC(=O)CCCCCCCC)CC[C@H]2[C@@H]3CCC4=CC(=O)CC[C@@H]4[C@H]3C(=C)C[C@@]21CC` [Etonogestrel-nonanoate], the “peak levels of etonogestrel” value in series [1] was “lower peak levels”. Besides, the “duration of action (etonogestrel levels above 1 nmol/l)” value in series [1] (setting [7]) was “extended duration”.

In the case of `CCCCCCCCCCC(=O)O[C@H]1CC[C@H]2[C@@H]3CCC4=CC(=O)CC[C@]4(C)[C@H]3CC[C@]12C` [testosterone undecanoate], the “pharmacokinetics of serum testosterone in humans” value in series [6] was “low initial release and steady-state levels of long duration”.

As to `CCCCCCCCCCC(=O)OCC` [Ethyl undecanoate], the Appearance result in series [3] (solvent alone) is given as “Clear colourless solution”. The same molecule showed a Viscosity in series [4] (solvent alone) of 2.6. This molecule came in with a Density in series [5] (solvent alone) of 0.861.

`C#C[C@]1(OC(=O)CCCCCCCCCCC)CC[C@H]2[C@@H]3CCC4=CC(=O)CC[C@@H]4[C@H]3C(=C)C[C@@]21CC` [etonogestrel dodecanoate]: the “peak levels of etonogestrel” value in series [1] was 9 nmol/L. Besides, the “time of initial peak level of etonogestrel” value in series [1] (setting [7]) is listed as 8 days.
